Results taken from patent US12404241B2 (Celgene Corporation, priority 2018, dated 2025).
Structures can show the parent of a compound that is named as a salt.

Molecular target: T1, AR (Homo sapiens, UniProt P10275)
T1 construct: endogenous in cells; host or cells: VCaP cells
T1 sequence (P10275 1-920): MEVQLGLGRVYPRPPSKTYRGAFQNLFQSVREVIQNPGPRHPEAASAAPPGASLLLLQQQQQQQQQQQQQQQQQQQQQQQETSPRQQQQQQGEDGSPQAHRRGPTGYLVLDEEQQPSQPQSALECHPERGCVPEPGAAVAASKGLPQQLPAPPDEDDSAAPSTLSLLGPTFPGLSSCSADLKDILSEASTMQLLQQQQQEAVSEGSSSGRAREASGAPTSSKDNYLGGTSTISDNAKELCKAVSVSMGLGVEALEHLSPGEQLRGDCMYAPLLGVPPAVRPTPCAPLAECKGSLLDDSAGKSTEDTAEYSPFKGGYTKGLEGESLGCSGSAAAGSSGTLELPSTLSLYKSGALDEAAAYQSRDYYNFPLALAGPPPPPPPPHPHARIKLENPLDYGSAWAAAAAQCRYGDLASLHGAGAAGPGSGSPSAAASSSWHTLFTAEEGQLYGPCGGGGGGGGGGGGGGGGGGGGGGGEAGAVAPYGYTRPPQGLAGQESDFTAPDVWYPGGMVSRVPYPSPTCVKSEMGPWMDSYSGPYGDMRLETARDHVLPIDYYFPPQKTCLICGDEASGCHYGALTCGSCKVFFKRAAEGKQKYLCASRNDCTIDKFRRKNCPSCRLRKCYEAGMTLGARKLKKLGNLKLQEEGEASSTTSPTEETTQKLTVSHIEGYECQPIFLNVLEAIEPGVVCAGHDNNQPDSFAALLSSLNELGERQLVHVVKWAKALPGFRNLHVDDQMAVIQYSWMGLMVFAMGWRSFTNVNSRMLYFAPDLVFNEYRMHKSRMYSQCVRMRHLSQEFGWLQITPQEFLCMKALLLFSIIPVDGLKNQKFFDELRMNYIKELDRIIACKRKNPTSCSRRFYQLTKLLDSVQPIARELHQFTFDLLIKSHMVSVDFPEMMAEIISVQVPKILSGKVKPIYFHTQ
Experiment: VCAP AR Degradation Assay
Format: cell-based
Details: for Y (AR degradation efficiency, % of DMSO control): class symbols *; for DC50: class symbols A-C, read-out: DC50
Procedure, shortened: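 Compounds were plated as 10-point 1:3 series reaching 5 μM final, then VCaP cells were seeded onto them and incubated 24 h at 37 °C. Cells were lysed cold, and total AR was measured by sandwich ELISA relative to 0.1% DMSO wells.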

Row | SMILES | Y (AR degradation efficiency, % of DMSO control) | DC50
1 | CCc1cc(N2C(=S)N(c3ccc(C#N)c(C(F)(F)F)c3)C(=O)C23CCC3)ccc1OCCN1CCN(CC(=O)Nc2cccc(NC3CCC(=O)NC3=O)c2)CC1 (centres unmarked) [Example 132, 2-(4-(2-(4-(7-(4-cyano-3-(trifluoromethyl)phenyl)-8-oxo-6-thioxo-5,7-diazaspiro[3.4]octan-5-yl)-2-ethylphenoxy)ethyl)piperazin-1-yl)-N-(3-(2,6-dioxopiperidin-3-ylamino)phenyl)acetamide] | * (0<Y<=25%) | < 100 nM
2 | C[C@@H]1CN(CCOc2ccc(N3C(=S)N(c4ccc(C#N)c(Cl)c4)C(=O)C3(C)C)cc2C2CC2)C[C@H](C)N1CC(=O)Nc1cc(F)cc(NC2CCC(=O)NC2=O)c1 (stereo partly drawn) [Example 226, 2-((2S,6R)-4-(2-(4-(3-(3-chloro-4-cyanophenyl)-5,5-dimethyl-4-oxo-2-thioxoimidazolidin-1-yl)-2-cyclopropylphenoxy)ethyl)-2,6-dimethylpiperazin-1-yl)-N-(3-(2,6-dioxopiperidin-3-ylamino)-5-fluorophenyl)acetamide] | * (0<Y<=25%) | < 100 nM
3 | CCc1cc(N2C(=S)N(c3cnc(C#N)c(C(F)(F)F)c3)C(=O)C23CCC3)ccc1OCCN1C[C@@H]2CC[C@H]1CN2CC(=O)Nc1cccc(NC2CCC(=O)NC2=O)c1 (stereo partly drawn) [Example 172, 2-((1S,4S)-5-(2-(4-(7-(6-cyano-5-(trifluoromethyl)pyridin-3-yl)-8-oxo-6-thioxo-5,7-diazaspiro[3.4]octan-5-yl)-2-ethylphenoxy)ethyl)-2,5-diazabicyclo[2.2.2]octan-2-yl)-N-(3-(2,6-dioxopiperidin-3-ylamino)phenyl)acetamide] | *** (35%<Y<50%) | 100 to 500 nM
4 | CC1(C)C(=O)N(c2cnc(C#N)c(C(F)(F)F)c2)C(=S)N1c1ccc(OCCN2CCN(CC(=O)Nc3cccc(NC4CCC(=O)NC4=O)c3)CC2)c(Cl)c1 (centres unmarked) [Example 5, hydrochloride] | * (0<Y<=25%) | < 100 nM
5 | CCc1cc(N2C(=S)N(c3ccc(C#N)c(C(F)(F)F)c3)C(=O)C2(C)C)ccc1OCCN1C[C@H](C)N(CC(=O)Nc2cc(Cl)cc(NC3CCC(=O)NC3=O)c2)C[C@H]1C (stereo partly drawn) [Example 124, N-(3-chloro-5-(2,6-dioxopiperidin-3-ylamino)phenyl)-2-((2S,5R)-4-(2-(4-(3-(4-cyano-3-(trifluoromethyl)phenyl)-5,5-dimethyl-4-oxo-2-thioxoimidazolidin-1-yl)-2-ethylphenoxy)ethyl)-2,5-dimethylpiperazin-1-yl)acetamide] | * (0<Y<=25%) | 100 to 500 nM
6 | C[C@@H]1CN(CCCc2ccc(N3C(=S)N(c4ccc(C#N)c(C(F)(F)F)c4)C(=O)C3(C)C)cc2F)C[C@H](C)N1CC(=O)Nc1cccc(NC2CCC(=O)NC2=O)c1 (stereo partly drawn) [Example 287, 2-((2R,6S)-4-(3-(4-(3-(4-cyano-3-(trifluoromethyl)phenyl)-5,5-dimethyl-4-oxo-2-thioxoimidazolidin-1-yl)-2-fluorophenyl)propyl)-2,6-dimethylpiperazin-1-yl)-N-(3-(2,6-dioxopiperidin-3-ylamino)phenyl)acetamide] | * (0<Y<=25%) | < 100 nM
7 | CCc1cc(N2C(=S)N(c3cnc(C#N)c(C(F)(F)F)c3)C(=O)C2(C)C)ccc1OCCN1CCN([C@@H](C)C(=O)Nc2cccc(NC3CCC(=O)NC3=O)c2)CC1 (stereo partly drawn) [Example 118, (2S)-2-(4-(2-(4-(3-(6-cyano-5-(trifluoromethyl)pyridin-3-yl)-5,5-dimethyl-4-oxo-2-thioxoimidazolidin-1-yl)-2-ethylphenoxy)ethyl)piperazin-1-yl)-N-(3-(2,6-dioxopiperidin-3-ylamino)phenyl)propanamide] | * (0<Y<=25%) | < 100 nM
8 | CCc1cc(N2C(=S)N(c3ccc(C#N)c(C(F)(F)F)c3)C(=O)C2(C)C)ccc1OCCN1C[C@H](C)N(CC(=O)Nc2cccc(NC3CCC(=O)NC3=O)c2)[C@@H](C)C1 (stereo partly drawn) [Example 146, 2-((2S,6S)-4-(2-(4-(3-(4-cyano-3-(trifluoromethyl)phenyl)-5,5-dimethyl-4-oxo-2-thioxoimidazolidin-1-yl)-2-ethylphenoxy)ethyl)-2,6-dimethylpiperazin-1-yl)-N-(3-(2,6-dioxopiperidin-3-ylamino)phenyl)acetamide] | * (0<Y<=25%) | < 100 nM
9 | CCc1cc(N2C(=S)N(c3ccc(C#N)c(C(F)(F)F)c3)C(=O)C2(C)C)ccc1OCCN1CCN(CC(=O)Nc2cc(Cl)cc(NC3CCC(=O)NC3=O)c2)[C@H](C)C1 (stereo partly drawn) [Example 87, N-(3-chloro-5-(2,6-dioxopiperidin-3-ylamino)phenyl)-2-((R)-4-(2-(4-(3-(4-cyano-3-(trifluoromethyl)phenyl)-5,5-dimethyl-4-oxo-2-thioxoimidazolidin-1-yl)-2-ethylphenoxy)ethyl)-2-methylpiperazin-1-yl)acetamide] | * (0<Y<=25%) | < 100 nM
10 | CCc1cc(N2C(=S)N(c3cnc(C#N)c(C(F)(F)F)c3)C(=O)C2(C)C)ccc1OCCN1CCN(CC(=O)Nc2cccc(NC3CCC(=O)NC3=O)c2)CC1 (centres unmarked) [Example 22, hydrochloride] | * (0<Y<=25%) | < 100 nM
11 | CCc1cc(N2C(=S)N(c3ccc(C#N)c(C(F)(F)F)c3)C(=O)C2(C)C)ccc1OCCN1C[C@@H](C)N(CC(=O)Nc2cccc(NC3CCC(=O)NC3=O)c2)[C@@H](C)C1 (stereo partly drawn) [Example 150, 2-((2S,6R)-4-(2-(4-(3-(4-cyano-3-(trifluoromethyl)phenyl)-5,5-dimethyl-4-oxo-2-thioxoimidazolidin-1-yl)-2-ethylphenoxy)ethyl)-2,6-dimethylpiperazin-1-yl)-N-(3-(2,6-dioxopiperidin-3-ylamino)phenyl)acetamide] | * (0<Y<=25%) | < 100 nM
12 | CC(C)c1cc(N2C(=S)N(c3ccc(C#N)c(Cl)c3)C(=O)C2(C)C)ccc1OCCN1C[C@@H](C)N(CC(=O)Nc2cccc(NC3CCC(=O)NC3=O)c2)[C@@H](C)C1 (stereo partly drawn) [Example 202, 2-((2S,6R)-4-(2-(4-(3-(3-chloro-4-cyanophenyl)-5,5-dimethyl-4-oxo-2-thioxoimidazolidin-1-yl)-2-isopropylphenoxy)ethyl)-2,6-dimethylpiperazin-1-yl)-N-(3-(2,6-dioxopiperidin-3-ylamino)phenyl)acetamide] | * (0<Y<=25%) | < 100 nM
13 | CCc1cc(N2C(=S)N(c3cnc(C#N)c(C(F)(F)F)c3)C(=O)C23CCC3)ccc1OCCN1CCN(CC(=O)Nc2cccc(NC3CCC(=O)NC3=O)c2)CC1 (centres unmarked) [Example 56, 2-(4-(2-(4-(7-(6-cyano-5-(trifluoromethyl)pyridin-3-yl)-8-oxo-6-thioxo-5,7-diazaspiro[3.4]octan-5-yl)-2-ethylphenoxy)ethyl)piperazin-1-yl)-N-(3-(2,6-dioxopiperidin-3-ylamino)phenyl)acetamide] | * (0<Y<=25%) | < 100 nM
14 | CCc1cc(N2C(=S)N(c3ccc(C#N)c(C(F)(F)F)c3)C(=O)C2(C)C)cnc1OCCN1CCN(CC(=O)Nc2cc(Cl)cc(NC3CCC(=O)NC3=O)c2)CC1 (centres unmarked) [Example 69, N-(3-chloro-5-(2,6-dioxopiperidin-3-ylamino)phenyl)-2-(4-(2-(5-(3-(4-cyano-3-(trifluoromethyl)phenyl)-5,5-dimethyl-4-oxo-2-thioxoimidazolidin-1-yl)-3-ethylpyridin-2-yloxy)ethyl)piperazin-1-yl)acetamide] | * (0<Y<=25%) | < 100 nM
15 | C[C@@H]1CN(CCOc2ccc(N3C(=S)N(c4ccc(C#N)c(C(F)(F)F)c4)C(=O)C34CCC4)cc2CCF)CCN1CC(=O)Nc1cc(Cl)cc(NC2CCC(=O)NC2=O)c1 (stereo partly drawn) [Example 143, N-(3-chloro-5-(2,6-dioxopiperidin-3-ylamino)phenyl)-2-((R)-4-(2-(4-(7-(4-cyano-3-(trifluoromethyl)phenyl)-8-oxo-6-thioxo-5,7-diazaspiro[3.4]octan-5-yl)-2-(2-fluoroethyl)phenoxy)ethyl)-2-methylpiperazin-1-yl)acetamide] | * (0<Y<=25%) | < 100 nM
16 | CC1(C)C(=O)N(c2ccc(C#N)c(C(F)(F)F)c2)C(=S)N1c1ccc(OCCN2CCN(CC(=O)Nc3cccc(NC4CCC(=O)NC4=O)c3)CC2)c(C2CCCC2)c1 (centres unmarked) [Example 39, hydrochloride] | ** (25%<Y<=35%) | 100 to 500 nM
